This is an account of results in US20200404919A1, “USE OF HETEROARYL-TRIAZOLE AND HETEROARYL-TETRAZOLE COMPOUNDS AS PESTICIDES IN PLANT PROTECTION” (Bayer Aktiengesellschaft, priority 2018, published 2020).

What all share (type): in vivo
For one assay, the system named is Meloidogyne incognita. As to the kind of experiment: Meloidogyne incognita - test. The note with it: 336 h, salad seedlings in sand, after 14 days, read-out: nematicidal activity (percentage of gall formation). How it is done:
Meloidogyne incognita—Test
Solvent: 125.0 parts by weight of acetone
(§1) To produce a suitable preparation of active compound, 1 part by weight of active compound is mixed with the stated amount of solvent, and the concentrate is diluted with water to the desired concentration.
Vessels are filled with sand, a solution of the active ingredient, a suspension containing eggs and larvae of the southern root-knot nematode (Meloidogyne incognita) and salad seeds. The salad seeds germinate and the seedlings grow. Galls develop in the roots.
After 14 days the nematicidal activity is determined on the basis of the percentage of gall formation. 100% means no galls were found and 0% means the number of galls found on the roots of the treated plants was equal to that in untreated control plants.

Another assay deals with Phaedon cochleariae. Nature of the assay: Phaedon cochleariae - spray test. Conditions: in Brassica rapa, foliar, 168 h, read-out: mortality in %. How it is done:
Phaedon cochleariae—Spray Test
(§2) To produce a suitable preparation of active compound, 1 part by weight of active compound is mixed with the stated amount of solvents and is diluted with water, containing an emulsifier concentration of 1000 ppm, to the desired concentration. Further test concentrations are prepared by dilution with emulsifier containing water.
Chinese cabbage (Brassica pekinensis) leaf disks are sprayed with a preparation of the active ingredient of the desired concentration. Once dry, the leaf disks are infested with mustard beetle larvae (Phaedon cochleariae).
After 7 days mortality in % is determined. 100% means all beetle larvae have been killed and 0% means none of the beetle larvae have been killed.

The test system of a further assay is Spodoptera frugiperda. Nature of the assay: Spodoptera frugiperda - spray test. Conditions: in Zea mays, 168 h, read-out: mortality in %. As for the experimental part:
Spodoptera frugiperda—Spray Test
as §2
Maize (Zea mays) leaf sections are sprayed with a preparation of the active ingredient of the desired concentration. Once dry, the leaf sections are infested with fall armyworm larvae (Spodoptera frugiperda).
After 7 days mortality in % is determined. 100% means all caterpillars have been killed and 0% means none of the caterpillars have been killed.

The test system of another assay is Myzus persicae. As to the kind of experiment: Myzus persicae - oral test. Conditions: 120 h, read-out: mortality in %. As for the experimental part: To produce a suitable preparation of active compound, 1 part by weight of active compound is mixed with the stated amount of solvent, and the concentrate is diluted with water to the desired concentration. 50 μl compound solution is filled in microtiter plates and 150 μl IPL41 insect medium (33%+15% sugar) is added to obtain a total volume of 200 μl per well. Afterwards the plates are sealed with parafilm through which a mixed population of the green peach aphid (Myzus persicae) can suck on the compound preparation.
(§3) After 5 days mortality in % is determined. 100% means all aphids have been killed and 0% means none of the aphids have been killed.

The subject of the next assay is Aphis gossypii. As to the kind of experiment: Aphis gossypii - oral test. Conditions: 120 h, read-out: mortality in %. How it is done:
Solvent: 100 parts by weight acetone
as §1
50 μl compound solution is filled in microtiter plates and 150 μl IPL41 insect medium (33%+15% sugar) is added to obtain a total volume of 200 μl per well. Afterwards the plates are sealed with parafilm through which a mixed population of the cotton aphid (Aphis gossypii) can suck on the compound preparation.
as §3

Another assay concerns Diabrotica balteata. As to the kind of experiment: Diabrotica balteata - spray test. Conditions: 168 h, 160 μg/well, germinated wheat seeds, larvae, after 7 days, read-out: efficacy in %. As for the experimental part:
Diabrotica balteata—Spray Test
(§4) To produce a suitable preparation of active compound, 1 part by weight of active compound is mixed with the stated amount of solvent, and the concentrate is diluted with water, containing an emulsifier concentration of 1000 ppm, to the desired concentration. Further test concentrations are prepared by dilution with emulsifier containing water.
Soaked wheat seeds (Triticum aestivum) are placed in a multiple well plate filled with agar and some water and are incubated for 1 day to germinate (5 seeds per well). The germinated wheat seeds are sprayed with a test solution containing the desired concentration of the active ingredient. Afterwards each unit is infected with 10-20 larvae of the banded cucumber beetle (Diabrotica balteata).
After 7 days efficacy in % is determined. 100% means all the seedlings have grown up like in the untreated, uninfected control; 0% means none of the seedlings have grown.

A further assay has as its system Nezara viridula. Nature of the assay: Nezara viridula - spray test 1. Conditions: in Hordeum vulgare, 96 h, read-out: mortality in %. As for the experimental part:
Nezara viridula—Spray Test 1
as §4
Barley plants (Hordeum vulgare) infested with larvae of the southern green stink bug (Nezara viridula) are sprayed with a test solution containing the desired concentration of the active ingredient.
After 4 days mortality in % is determined. 100% means all the stink bugs have been killed; 0% means none of the stink bugs have been killed.

The subject of the next assay is Nilaparvata lugens. As to the kind of experiment: Nilaparvata lugens - spray test 1. The note with it: in Oryza sativa, 96 h, read-out: mortality in %, 500 g/ha, rice plants, after 4 days. As for the experimental part: Nilaparvata lugens—Spray Test 1
as §2
Rice plants (Oryza sativa) are sprayed with a preparation of the active ingredient of the desired concentration and the plants are infested with the brown planthopper (Nilaparvata lugens).
After 4 days mortality in % is determined. 100% means all planthoppers have been killed and 0% means none of the planthoppers have been killed.

The test system of another assay is Culex quinquefasciatus. Nature of the assay: Culex test (CULXFAS surface treatment & contact assay). The note with it: 30 minutes exposure, 24 hours after contact, read-out: efficacy (mortality in percent); for mortality at 4 mg/m2: surface concentration 4 mg/m^2, glazed tile; for mortality at 20 mg/m2: surface concentration 20 mg/m^2, glazed tile. How it is done:
Culex Test (CULXFAS Surface Treatment & Contact Assay)
Solvent: Acetone+2000 ppm rapeseed oil methyl ester (RME)
In order to produce a sufficient, active ingredient containing solution it is necessary to solve the test-compound in an acetone/RME solvent mixture. This solution is pipetted onto a glazed tile and after evaporation of the acetone, adult mosquitoes of the species Culex quinquefasciatus (Brown house mosquito) are placed onto the dried surface. The exposure time is 30 minutes.
(§5) Mortality in percent (%) is determined 24 hours after contact to the treated surface. 100% mortality means that all test-insects are dead, whereas 0% means that not a single insect died.

Assay [1] has as its system Aedes aegypti strain MONHEIM. Nature of the assay: Aedes test (AEDSAE surface treatment & contact assay). Conditions: 30 minutes exposure, 24 hours after contact, read-out: efficacy (mortality in percent); for mortality at 4 mg/m2: surface concentration 4 mg/m^2, glazed tile; for mortality at 20 mg/m2: surface concentration 20 mg/m^2, glazed tile. How it is done:
Aedes Test (AEDSAE Surface Treatment & Contact Assay)
Solvent: Aceton+2000 ppm rapeseed oil methyl ester (RME)
In order to produce a sufficient, active ingredient containing solution it is necessary to solve the test-compound in an acetone/RME solvent mixture. This solution is pipetted onto a glazed tile and after evaporation of the acetone, adult mosquitoes of the species Aedes aegypti strain MONHEIM are placed onto the dried surface. The exposure time is 30 minutes.
as §5

Assay [2] relates to Musca domestica strain WHO-N. As to the kind of experiment: Musca domestica test (MUSCDO surface treatment & contact assay). The note with it: 30 minutes exposure, 24 hours after contact, read-out: efficacy (mortality in percent); for mortality at 4 mg/m2: surface concentration 4 mg/m^2, glazed tile; for mortality at 20 mg/m2: surface concentration 20 mg/m^2, glazed tile. As for the experimental part: Musca domestica Test (MUSCDO Surface Treatment & Contact Assay)
(§6) Solvent: Aceton+2000 ppm Rapeseed oil methyl ester (RME)
In order to produce a sufficient, active ingredient containing solution it is necessary to solve the test-compound in an acetone/RME solvent mixture. This solution is pipetted onto a glazed tile and after evaporation of the acetone, adult flies of the species Musca domestica strain WHO-N are placed onto the dried surface. The exposure time is 30 minutes.
as §5

Assay [3] deals with Blattella germanica strain PAULINIA
Nature of the assay: Blattella germanica test (BLTTGE surface treatment & contact assay). The note with it: 30 minutes exposure, 24 hours after contact, read-out: efficacy (mortality in percent); for mortality at 4 mg/m2: surface concentration 4 mg/m^2, glazed tile; for mortality at 20 mg/m2: surface concentration 20 mg/m^2, glazed tile. As for the experimental part:
Blattella germanica Test (BLTTGE Surface Treatment & Contact Assay)
as §6
In order to produce a sufficient, active ingredient containing solution it is necessary to solve the test-compound in an acetone/RME solvent mixture. This solution is pipetted onto a glazed tile and after evaporation of the acetone, adult animals of the species Blattella germanica strain PAULINIA are placed onto the dried surface. The exposure time is 30 minutes.
as §5

As to `CC(c1ncnn1-c1ncccn1)N(CC1CC1)C(=O)c1cc(Cl)c(Cl)c(Cl)c1` (centres unmarked) [Compound I-111], the pest or weed control at 20 ppm with Meloidogyne incognita came to 90%.

On to `CC(NC(=O)c1cc(Cl)cc(C#N)c1)c1ncnn1-c1ncccn1` (centres unmarked) [Compound I-114, 3-chloro-5-cyano-N-[1-(2-pyrimidin-2-yl-1,2,4-triazol-3-yl)ethyl]benzamide], for which the mortality at 500 g/ha with Phaedon cochleariae, in the assay on Spodoptera frugiperda, with Nezara viridula and in the assay on Nilaparvata lugens was 100% throughout. The mortality at 20 ppm in the assay on Myzus persicae came out at 100%. For the same compound, the mortality at 100 ppm with Aphis gossypii stood at 100%. In the assay on Diabrotica balteata, the pest or weed control at 160 µg/disc, 160 µg/well stood at 100%. In addition, the mortality at 4 mg/m2 (with Culex quinquefasciatus; in assay [1]; in [2]; in [3]) was 80 to 100% throughout. Further, the mortality at 20 mg/m2 (with Culex quinquefasciatus; in [1]; in [2]; in assay [3]) was 80 to 100% throughout.

With `CC(NC(=O)c1cc(C(F)(F)F)cc(C(F)(F)F)c1)c1ncnn1-c1ncccn1` (centres unmarked) [Compound I-63, N-[1-(2-pyrimidin-2-yl-1,2,4-triazol-3-yl)ethyl]-3,5-bis(trifluoromethyl)benzamide], the mortality at 500 g/ha with Phaedon cochleariae, with Spodoptera frugiperda, in the assay with Nezara viridula and in the assay with Nilaparvata lugens was 100% in each case. In addition, in the assay on Myzus persicae, the mortality at 20 ppm was 100%. Moreover, in the assay on Aphis gossypii, the mortality at 100 ppm came out at 100%. For the same compound, the pest or weed control at 160 µg/disc, 160 µg/well in the assay on Diabrotica balteata turned out to be 100%. Further, the mortality at 4 mg/m2 (with Culex quinquefasciatus; in assay [1]; in assay [2]; in assay [3]) was 80 to 100% in each case. The mortality at 20 mg/m2 (in the assay with Culex quinquefasciatus; in assay [1]; in assay [2]; in assay [3]) was 80 to 100% each time.

Take `CC(c1ncnn1-c1ncccn1)N(CC1CC1)C(=O)c1ccc(Cl)cc1` (centres unmarked) [Compound I-109]: the pest or weed control at 160 µg/disc, 160 µg/well with Diabrotica balteata was found to be 100%. The pest or weed control at 20 ppm in the assay on Meloidogyne incognita came to 100%.

Regarding `Cc1nc(C(C)N(CC2CC2)C(=O)c2cc(Cl)cc(C(F)(F)F)c2)n(-c2ncc(F)cn2)n1` (centres unmarked) [Compound I-77, 3-chloro-N-(cyclopropylmethyl)-N-[1-[2-(5-fluoropyrimidin-2-yl)-5-methyl-1,2,4-triazol-3-yl]ethyl]-5-(trifluoromethyl)benzamide], the mortality at 500 g/ha in the assay on Phaedon cochleariae, in the assay with Spodoptera frugiperda, in the assay with Nezara viridula and in the assay on Nilaparvata lugens was 100% in each case. In the assay with Myzus persicae, the mortality at 20 ppm was determined as 100%. In the assay with Aphis gossypii, the mortality at 100 ppm was 100%. The pest or weed control at 160 µg/disc, 160 µg/well in the assay on Diabrotica balteata worked out at 100%. The mortality at 4 mg/m2 (with Culex quinquefasciatus; in [2]) was 80 to 100% throughout. Also, the mortality at 20 mg/m2 (with Culex quinquefasciatus; in assay [1]; in assay [2]; in assay [3]) was 80 to 100% throughout.

Take `C[C@H](NC(=O)c1cc(Cl)cc(C(F)(F)F)c1)c1ncnn1-c1ccc(Cl)cn1` [Compound I-120, 3-chloro-N-[(1S)-1-[2-(5-chloro-2-pyridyl)-1,2,4-triazol-3-yl]ethyl]-5-(trifluoromethyl)benzamide]: the mortality at 500 g/ha in the assay with Phaedon cochleariae, with Spodoptera frugiperda and in the assay on Nezara viridula was 100% each time. Further, the mortality at 20 ppm in the assay with Myzus persicae turned out to be 100%. Also, the mortality at 100 ppm in the assay with Aphis gossypii was 100%. Besides, the pest or weed control at 160 µg/disc, 160 µg/well with Diabrotica balteata was determined as 100%. For the same compound, the mortality at 4 mg/m2 (with Culex quinquefasciatus; in assay [1]; in assay [2]) was 80 to 100% each time. Besides, the mortality at 20 mg/m2 (in the assay on Culex quinquefasciatus; in assay [1]; in [2]; in assay [3]) was 80 to 100% in each case.

As for `CC(NC(=O)c1cc(Cl)cc(OC(F)(F)F)c1)c1ncnn1-c1ncccn1` (centres unmarked) [Compound I-119, 3-chloro-N-[1-(2-pyrimidin-2-yl-1,2,4-triazol-3-yl)ethyl]-5-(trifluoromethoxy)benzamide], the mortality at 500 g/ha in the assay with Phaedon cochleariae, in the assay with Spodoptera frugiperda, with Nezara viridula and with Nilaparvata lugens was 100% each time. Besides, in the assay with Myzus persicae, the mortality at 20 ppm is 100%. In addition, the mortality at 100 ppm in the assay on Aphis gossypii worked out at 100%. Moreover, the pest or weed control at 160 µg/disc, 160 µg/well in the assay on Diabrotica balteata came out at 100%. For the same compound, the mortality at 4 mg/m2 (in the assay with Culex quinquefasciatus; in assay [1]; in [2]; in [3]) was 80 to 100% throughout. In addition, the mortality at 20 mg/m2 (in the assay on Culex quinquefasciatus; in [1]; in [2]; in assay [3]) was 80 to 100% throughout.
